The NIST ThermoML archive (doi:10.1016/j.fluid.2014.06.024)
Numbers after ± are expanded uncertainties.

Assay: molar heat capacity at constant pressure; xn = mol fraction of the nth substance listed
Settings: 101 kPa, Liquid, Small sample (50 mg) DSC

Cc1ccccc1C [1,2-dimethylbenzene] + C1CCOCC1
molar heat capacity at constant pressure (298.15 K, x2 = 0.0918): 184.41 ± 2.9 J/K/mol | molar heat capacity at constant pressure (298.15 K, x2 = 0.1317): 183.03 ± 2.8 J/K/mol | molar heat capacity at constant pressure (298.15 K, x2 = 0.1765): 181.48 ± 2.8 J/K/mol | molar heat capacity at constant pressure (298.15 K, x2 = 0.2108): 180.29 ± 2.8 J/K/mol | molar heat capacity at constant pressure (298.15 K, x2 = 0.2543): 178.76 ± 2.8 J/K/mol | molar heat capacity at constant pressure (298.15 K, x2 = 0.2876): 177.59 ± 2.8 J/K/mol | molar heat capacity at constant pressure (298.15 K, x2 = 0.3105): 176.77 ± 2.7 J/K/mol | molar heat capacity at constant pressure (298.15 K, x2 = 0.3651): 174.81 ± 2.7 J/K/mol | molar heat capacity at constant pressure (298.15 K, x2 = 0.4187): 172.86 ± 2.7 J/K/mol | molar heat capacity at constant pressure (298.15 K, x2 = 0.4498): 171.71 ± 2.7 J/K/mol | molar heat capacity at constant pressure (298.15 K, x2 = 0.491): 170.18 ± 2.6 J/K/mol | molar heat capacity at constant pressure (298.15 K, x2 = 0.5217): 169.03 ± 2.6 J/K/mol | molar heat capacity at constant pressure (298.15 K, x2 = 0.5518): 167.88 ± 2.6 J/K/mol | molar heat capacity at constant pressure (298.15 K, x2 = 0.5871): 166.53 ± 2.6 J/K/mol | molar heat capacity at constant pressure (298.15 K, x2 = 0.6218): 165.19 ± 2.6 J/K/mol | molar heat capacity at constant pressure (298.15 K, x2 = 0.6617): 163.62 ± 2.5 J/K/mol | molar heat capacity at constant pressure (298.15 K, x2 = 0.6901): 162.5 ± 2.5 J/K/mol | molar heat capacity at constant pressure (298.15 K, x2 = 0.7219): 161.23 ± 2.5 J/K/mol | molar heat capacity at constant pressure (298.15 K, x2 = 0.7561): 159.85 ± 2.5 J/K/mol | molar heat capacity at constant pressure (298.15 K, x2 = 0.7918): 158.39 ± 2.5 J/K/mol | molar heat capacity at constant pressure (298.15 K, x2 = 0.8231): 157.11 ± 2.4 J/K/mol | molar heat capacity at constant pressure (298.15 K, x2 = 0.8651): 155.36 ± 2.4 J/K/mol | molar heat capacity at constant pressure (298.15 K, x2 = 0.8902): 154.31 ± 2.4 J/K/mol | molar heat capacity at constant pressure (298.15 K, x2 = 0.9234): 152.9 ± 2.4 J/K/mol | molar heat capacity at constant pressure (303.15 K, x2 = 0.0918): 186 ± 2.9 J/K/mol | molar heat capacity at constant pressure (303.15 K, x2 = 0.1317): 184.64 ± 2.9 J/K/mol | molar heat capacity at constant pressure (303.15 K, x2 = 0.1765): 183.1 ± 2.8 J/K/mol | molar heat capacity at constant pressure (303.15 K, x2 = 0.2108): 181.92 ± 2.8 J/K/mol | molar heat capacity at constant pressure (303.15 K, x2 = 0.2543): 180.4 ± 2.8 J/K/mol | molar heat capacity at constant pressure (303.15 K, x2 = 0.2876): 179.23 ± 2.8 J/K/mol | molar heat capacity at constant pressure (303.15 K, x2 = 0.3105): 178.42 ± 2.8 J/K/mol | molar heat capacity at constant pressure (303.15 K, x2 = 0.3651): 176.47 ± 2.7 J/K/mol | molar heat capacity at constant pressure (303.15 K, x2 = 0.4187): 174.53 ± 2.7 J/K/mol | molar heat capacity at constant pressure (303.15 K, x2 = 0.4498): 173.38 ± 2.7 J/K/mol | molar heat capacity at constant pressure (303.15 K, x2 = 0.491): 171.85 ± 2.7 J/K/mol | molar heat capacity at constant pressure (303.15 K, x2 = 0.5217): 170.7 ± 2.6 J/K/mol | molar heat capacity at constant pressure (303.15 K, x2 = 0.5518): 169.56 ± 2.6 J/K/mol | molar heat capacity at constant pressure (303.15 K, x2 = 0.5871): 168.2 ± 2.6 J/K/mol | molar heat capacity at constant pressure (303.15 K, x2 = 0.6218): 166.86 ± 2.6 J/K/mol | molar heat capacity at constant pressure (303.15 K, x2 = 0.6617): 165.29 ± 2.6 J/K/mol | molar heat capacity at constant pressure (303.15 K, x2 = 0.6901): 164.16 ± 2.5 J/K/mol | molar heat capacity at constant pressure (303.15 K, x2 = 0.7219): 162.89 ± 2.5 J/K/mol | molar heat capacity at constant pressure (303.15 K, x2 = 0.7561): 161.5 ± 2.5 J/K/mol | molar heat capacity at constant pressure (303.15 K, x2 = 0.7918): 160.04 ± 2.5 J/K/mol | molar heat capacity at constant pressure (303.15 K, x2 = 0.8231): 158.75 ± 2.5 J/K/mol | molar heat capacity at constant pressure (303.15 K, x2 = 0.8651): 156.99 ± 2.4 J/K/mol | molar heat capacity at constant pressure (303.15 K, x2 = 0.8902): 155.93 ± 2.4 J/K/mol | molar heat capacity at constant pressure (303.15 K, x2 = 0.9234): 154.52 ± 2.4 J/K/mol | molar heat capacity at constant pressure (308.15 K, x2 = 0.0918): 187.56 ± 2.9 J/K/mol | molar heat capacity at constant pressure (308.15 K, x2 = 0.1317): 186.23 ± 2.9 J/K/mol | molar heat capacity at constant pressure (308.15 K, x2 = 0.1765): 184.72 ± 2.9 J/K/mol | molar heat capacity at constant pressure (308.15 K, x2 = 0.2108): 183.55 ± 2.8 J/K/mol | molar heat capacity at constant pressure (308.15 K, x2 = 0.2543): 182.06 ± 2.8 J/K/mol | molar heat capacity at constant pressure (308.15 K, x2 = 0.2876): 180.91 ± 2.8 J/K/mol | molar heat capacity at constant pressure (308.15 K, x2 = 0.3105): 180.11 ± 2.8 J/K/mol | molar heat capacity at constant pressure (308.15 K, x2 = 0.3651): 178.18 ± 2.8 J/K/mol | molar heat capacity at constant pressure (308.15 K, x2 = 0.4187): 176.26 ± 2.7 J/K/mol | molar heat capacity at constant pressure (308.15 K, x2 = 0.4498): 175.13 ± 2.7 J/K/mol | molar heat capacity at constant pressure (308.15 K, x2 = 0.491): 173.62 ± 2.7 J/K/mol | molar heat capacity at constant pressure (308.15 K, x2 = 0.5217): 172.47 ± 2.7 J/K/mol | molar heat capacity at constant pressure (308.15 K, x2 = 0.5518): 171.34 ± 2.6 J/K/mol | molar heat capacity at constant pressure (308.15 K, x2 = 0.5871): 170 ± 2.6 J/K/mol | molar heat capacity at constant pressure (308.15 K, x2 = 0.6218): 168.66 ± 2.6 J/K/mol | molar heat capacity at constant pressure (308.15 K, x2 = 0.6617): 167.1 ± 2.6 J/K/mol | molar heat capacity at constant pressure (308.15 K, x2 = 0.6901): 165.98 ± 2.6 J/K/mol | molar heat capacity at constant pressure (308.15 K, x2 = 0.7219): 164.71 ± 2.5 J/K/mol | molar heat capacity at constant pressure (308.15 K, x2 = 0.7561): 163.33 ± 2.5 J/K/mol | molar heat capacity at constant pressure (308.15 K, x2 = 0.7918): 161.87 ± 2.5 J/K/mol | molar heat capacity at constant pressure (308.15 K, x2 = 0.8231): 160.58 ± 2.5 J/K/mol | molar heat capacity at constant pressure (308.15 K, x2 = 0.8651): 158.83 ± 2.5 J/K/mol | molar heat capacity at constant pressure (308.15 K, x2 = 0.8902): 157.78 ± 2.4 J/K/mol | molar heat capacity at constant pressure (308.15 K, x2 = 0.9234): 156.37 ± 2.4 J/K/mol
